# Laboratory results reported in US20180265515A1 (Genentech, Inc., priority 2015, published 2018).
# Legend:
# [1] = target: T1, isolated recombinant JAK1 kinase domain (Homo sapiens, UniProt P23458); assay: JAK1 enzyme assay (Caliper LabChip, Ki); assay type: biochemical; conditions: recombinant JAK1 kinase domain, 25 μM ATP
# T1 construct: The activity of the isolated recombinant JAK1 and JAK2 kinase domain was measured
# Method in brief: (§1)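 Values are Ki estimates derived with the Morrison tight-binding equation modified for competition with ATP. Activity of the recombinant kinase domains was measured as peptide phosphorylation on a Caliper LabChip after a 30-minute, 22° C reaction terminated by EDTA.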
# [2] = target: T2, isolated recombinant JAK2 kinase domain (Homo sapiens, UniProt O60674); assay: JAK2 enzyme assay (Caliper LabChip, Ki); assay type: biochemical; conditions: 25 μM ATP
# T2 construct: The activity of the isolated recombinant JAK1 and JAK2 kinase domain was measured
# T2 sequence (O60674 849-1124 limits assumed): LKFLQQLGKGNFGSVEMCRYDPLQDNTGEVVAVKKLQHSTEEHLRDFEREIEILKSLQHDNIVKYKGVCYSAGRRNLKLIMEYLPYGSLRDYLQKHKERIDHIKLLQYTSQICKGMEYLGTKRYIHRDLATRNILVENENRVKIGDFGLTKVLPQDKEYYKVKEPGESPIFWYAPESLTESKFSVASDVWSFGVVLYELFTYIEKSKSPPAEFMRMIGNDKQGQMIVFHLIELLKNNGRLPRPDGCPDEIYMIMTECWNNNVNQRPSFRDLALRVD
# Method in brief: as §1
# [3] = test system: JAK1-dependent STAT6 phosphorylation downstream of IL-13 stimulation in BEAS-2B human bronchial epithelial cells; assay: JAK1 pathway assay in BEAS-2B cells (IL-13 stimulated STAT6 phosphorylation, MSD); assay type: cell-based; conditions: read-out: P-STAT6 BEAS2B + IL13 IC50
# Method in brief: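 BEAS-2B human bronchial epithelial cells, plated the day before in complete growth medium, were preincubated with compound for 1 hr at 37° C (0.2% DMSO final), then stimulated with IL-13 at its EC90 for 15 min. STAT6 phosphorylation in lysates was read by MSD; EC50 was taken as 50% inhibition versus DMSO control.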
# T1 sequence (P23458 875-1153 limits assumed): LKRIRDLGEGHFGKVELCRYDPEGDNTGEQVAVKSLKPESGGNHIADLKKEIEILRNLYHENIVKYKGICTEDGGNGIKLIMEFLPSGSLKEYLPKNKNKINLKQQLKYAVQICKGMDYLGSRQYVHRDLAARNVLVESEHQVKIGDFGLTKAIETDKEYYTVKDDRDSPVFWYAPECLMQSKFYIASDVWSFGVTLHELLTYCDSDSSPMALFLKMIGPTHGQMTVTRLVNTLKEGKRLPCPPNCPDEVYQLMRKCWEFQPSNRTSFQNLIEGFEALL
SMILES,Ki [1] [nM],Ki [2] [nM],IC50 [3] [nM]
CSc1ccc(OC(F)F)c(-c2nn(CCN[C@H]3C[C@H](O)C3)cc2NC(=O)c2cnn3cccnc23)c1 [Example 40],0.28,0.25,9.5
"CC(C)Sc1ccc(OC(F)F)c(-c2nn(CC(=O)N3CC4CCCNC4C3)cc2NC(=O)c2cnn3cccnc23)c1 (stereo not drawn) [Example 124, N-[1-[2-(1,2,3,4,4a,5,7,7a-octahydropyrrolo[3,4-b]pyridin-6-yl)-2-oxo-ethyl]-3-[2-(difluoromethoxy)-5-isopropylsulfanyl-phenyl]pyrazol-4-yl]pyrazolo[1,5-a]pyrimidine-3-carboxamide]",0.92,1.1,59
"O=C(Nc1cn(CCN[C@H]2C[C@H](O)C2)nc1-c1cc(SC2COC2)ccc1OC(F)F)c1cnn2cccnc12 [Example 179, N-[3-[2-(difluoromethoxy)-5-(oxetan-3-ylsulfanyl)phenyl]-1-(2-[[trans-3-hydroxycyclobutyl]amino]ethyl)-1H-pyrazol-4-yl]pyrazolo[1,5-a]pyrimidine-3-carboxamide]",0.74,0.59,26
"O=C(Nc1cn(Cc2cn(C3CCN(C4COC4)CC3)nn2)nc1-c1cc(SC2CC2)ccc1OC(F)F)c1cnn2cccnc12 [Example 174, N-[3-[5-cyclopropylsulfanyl-2-(difluoromethoxy)phenyl]-1-[[1-[1-(oxetan-3-yl)-4-piperidyl]triazol-4-yl]methyl]pyrazol-4-yl]pyrazolo[1,5-a]pyrimidine-3-carboxamide]",0.27,0.21,11
"CSc1ccc(OC(F)F)c(-c2nn(CCN[C@@H]3CCOC3)cc2NC(=O)c2cnn3cccnc23)c1 [Example 11, (R)—N-(3-(2-(difluoromethoxy)-5-(methylthio)phenyl)-1-(2-((tetrahydrofuran-3-yl)amino)ethyl)-1H-pyrazol-4-yl)pyrazolo[1,5-a]pyrimidine-3-carboxamide]",0.32,0.21,5.9
"CSc1ccc(OC(F)F)c(-c2nn(CC(=O)N3CCC(N(C)CCC#N)CC3)cc2NC(=O)c2cnn3cccnc23)c1 [Example 2, N-[1-[2-[4-[2-cyanoethyl(methyl)amino]-1-piperidyl]-2-oxo-ethyl]-3-[2-(difluoromethoxy)-5-methylsulfanyl-phenyl]pyrazol-4-yl]pyrazolo[1,5-a]pyrimidine-3-carboxamide]",0.28,0.42,25
"CSc1ccc(OC(F)F)c(-c2nn(CC(=O)N3CCC(N(C)CC(C)(F)F)CC3)cc2NC(=O)c2cnn3cccnc23)c1 [Example 24, N-[3-[2-(difluoromethoxy)-5-methylsulfanyl-phenyl]-1-[2-[4-[2,2-difluoropropyl(methyl)amino]-1-piperidyl]-2-oxo-ethyl]pyrazol-4-yl]pyrazolo[1,5-a]pyrimidine-3-carboxamide]",0.22,0.32,4.9
"CSc1ccc(OC(F)F)c(-c2nn(Cc3cn(C4CCN(C5COC5)CC4)nn3)cc2NC(=O)c2cnn3cccnc23)c1 [Example 90, N-[3-[2-(difluoromethoxy)-5-methylsulfanyl-phenyl]-1-[[1-[1-(oxetan-3-yl)-4-piperidyl]triazol-4-yl]methyl]pyrazol-4-yl]pyrazolo[1,5-a]pyrimidine-3-carboxamide]",0.32,0.14,22
"CSc1ccc(OC(F)F)c(-c2nn(CC(=O)N3CCC(NCC(C)(C)C#N)CC3)cc2NC(=O)c2cnn3cccnc23)c1 [Example 20, N-[1-[2-[4-[(2-cyano-2-methyl-propyl)amino]-1-piperidyl]-2-oxo-ethyl]-3-[2-(difluoromethoxy)-5-methylsulfanyl-phenyl]pyrazol-4-yl]pyrazolo[1,5-a]pyrimidine-3-carboxamide]",0.2,0.33,11
"CC(C)Sc1ccc(OC(F)F)c(-c2nn(CC(=O)N3CCN(CC4CCN(CC(=O)N(C)C)CC4)CC3)cc2NC(=O)c2cnn3cccnc23)c1 [Example 140, N-[3-[2-(difluoromethoxy)-5-isopropylsulfanyl-phenyl]-1-[2-[4-[[1-[2-(dimethylamino)-2-oxo-ethyl]-4-piperidyl]methyl]piperazin-1-yl]-2-oxo-ethyl]pyrazol-4-yl]pyrazolo[1,5-a]pyrimidine-3-carboxamide]",0.63,1.7,51
"CSc1ccc(OC(F)F)c(-c2nn(CC(=O)N3CCC(N4CCNC(=O)C4)CC3)cc2NC(=O)c2cnn3cccnc23)c1 [Example 15, N-[3-[2-(difluoromethoxy)-5-methylsulfanyl-phenyl]-1-[2-oxo-2-[4-(3-oxopiperazin-1-yl)-1-piperidyl]ethyl]pyrazol-4-yl]pyrazolo[1,5-a]pyrimidine-3-carboxamide]",0.28,0.38,310
"CC(C)Sc1ccc(OC(F)F)c(-c2nn(CC(=O)N3CCC(N4CCCC(C#N)C4)CC3)cc2NC(=O)c2cnn3cccnc23)c1 (stereo not drawn) [Example 107, N-[1-[2-[4-(3-cyano-1-piperidyl)-1-piperidyl]-2-oxo-ethyl]-3-[2-(difluoromethoxy)-5-isopropylsulfanyl-phenyl]pyrazol-4-yl]pyrazolo[1,5-a]pyrimidine-3-carboxamide]",0.75,1.7,56
"CS(=O)(=O)c1ccc(OC(F)F)c(-c2n[nH]cc2NC(=O)c2cnn3cccnc23)c1 [Example 4, N-[3-[2-(difluoromethoxy)-5-methylsulfonyl-phenyl]-1H-pyrazol-4-yl]pyrazolo[1,5-a]pyrimidine-3-carboxamide]",0.45,0.16,35
"CC(C)Sc1ccc(OC(F)F)c(-c2nn(CC(=O)N3CCC(N4CC5CC(C4)O5)CC3)cc2NC(=O)c2cnn3cccnc23)c1 [Example 130, N-[3-[2-(difluoromethoxy)-5-isopropylsulfanyl-phenyl]-1-[2-[4-(6-oxa-3-azabicyclo[3.1.1]heptan-3-yl)-1-piperidyl]-2-oxo-ethyl]pyrazol-4-yl]pyrazolo[1,5-a]pyrimidine-3-carboxamide]",0.57,1,19
"CC(C)Sc1ccc(OC(F)F)c(-c2nn(CC(=O)N3CCC(N4CCN(C)CC4)CC3)cc2NC(=O)c2cnn3cccnc23)c1 [Example 118, N-[3-[2-(difluoromethoxy)-5-isopropylsulfanyl-phenyl]-1-[2-[4-(4-methylpiperazin-1-yl)-1-piperidyl]-2-oxo-ethyl]pyrazol-4-yl]pyrazolo[1,5-a]pyrimidine-3-carboxamide]",0.6,1.8,40
"COC(=O)N1CCN(CC2CCN(C(=O)Cn3cc(NC(=O)c4cnn5cccnc45)c(-c4cc(SC(C)C)ccc4OC(F)F)n3)CC2)CC1 [Example 150, methyl 4-[[1-(2-[3-[2-(difluoromethoxy)-5-(propan-2-ylsulfanyl)phenyl]-4-[pyrazolo[1,5-a]pyrimidine-3-amido]-1H-pyrazol-1-yl]acetyl)piperidin-4-yl]methyl]piperazine-1-carboxylate]",0.6,1.4,15
"CC(C)Sc1ccc(OC(F)F)c(-c2nn(CC(=O)N3CCC(N(CCN4CCOCC4)C4COC4)CC3)cc2NC(=O)c2cnn3cccnc23)c1 [Example 147, N-[3-[2-(difluoromethoxy)-5-isopropylsulfanyl-phenyl]-1-[2-[4-[2-morpholinoethyl(oxetan-3-yl)amino]-1-piperidyl]-2-oxo-ethyl]pyrazol-4-yl]pyrazolo[1,5-a]pyrimidine-3-carboxamide]",0.73,1.8,1000
"CSc1ccc(OC(F)F)c(-c2n[nH]cc2NC(=O)c2cnn3cccnc23)c1 [Example 1, N-(3-(2-(difluoromethoxy)-5-(methylthio)phenyl)-1H-pyrazol-4-yl)pyrazolo[1,5-a]pyrimidine-3-carboxamide]",0.079,0.041,2.6
"CSc1ccc(OC(F)F)c(-c2nn(CC(=O)N3CCC(N4CCCOCC4)CC3)cc2NC(=O)c2cnn3cccnc23)c1 [Example 45, N-[3-[2-(difluoromethoxy)-5-methylsulfanyl-phenyl]-1-[2-[4-(1,4-oxazepan-4-yl)-1-piperidyl]-2-oxo-ethyl]pyrazol-4-yl]pyrazolo[1,5-a]pyrimidine-3-carboxamide]",0.32,0.68,44
"CSc1ccc(OC(F)F)c(-c2nn(CC(=O)N3CCC(N4CC[S+]([O-])CC4)CC3)cc2NC(=O)c2cnn3cccnc23)c1 [Example 48, N-[3-[2-(difluoromethoxy)-5-methylsulfanyl-phenyl]-1-[2-oxo-2-[4-(1-oxo-1,4-thiazinan-4-yl)-1-piperidyl]ethyl]pyrazol-4-yl]pyrazolo[1,5-a]pyrimidine-3-carboxamide]",0.29,0.44,410
"O=C(Nc1cn(CC(=O)N2CCN(CC3CCOCC3)CC2)nc1-c1cc(SC2CC2)ccc1OC(F)F)c1cnn2cccnc12 [Example 165, N-[3-[5-cyclopropylsulfanyl-2-(difluoromethoxy)phenyl]-1-[2-oxo-2-[4-(tetrahydropyran-4-ylmethyl)piperazin-1-yl]ethyl]pyrazol-4-yl]pyrazolo[1,5-a]pyrimidine-3-carboxamide]",0.4,0.67,20
